According to patent publication US20230117470A1, “SUBSTITUTED PYRAZOLE COMPOUNDS AS TOLL RECEPTOR INHIBITORS” (BRISTOL-MYERS SQUIBB COMPANY, priority 2019, published 2023):

Assays:
Format in all cases: cell-based
human TLR7 = target: T1, human TLR7 (Homo sapiens, UniProt Q9NYK1); experiment: TLR7 inhibition reporter assay (HEK-Blue cells, SEAP reporter, gardiquimod stimulation); settings: HEK-Blue cells overexpressing human TLR7, SEAP reporter, gardiquimod 7.5 μM
T1 construct: host or cells: HEK-Blue cells
T1 sequence (Q9NYK1 27-1049): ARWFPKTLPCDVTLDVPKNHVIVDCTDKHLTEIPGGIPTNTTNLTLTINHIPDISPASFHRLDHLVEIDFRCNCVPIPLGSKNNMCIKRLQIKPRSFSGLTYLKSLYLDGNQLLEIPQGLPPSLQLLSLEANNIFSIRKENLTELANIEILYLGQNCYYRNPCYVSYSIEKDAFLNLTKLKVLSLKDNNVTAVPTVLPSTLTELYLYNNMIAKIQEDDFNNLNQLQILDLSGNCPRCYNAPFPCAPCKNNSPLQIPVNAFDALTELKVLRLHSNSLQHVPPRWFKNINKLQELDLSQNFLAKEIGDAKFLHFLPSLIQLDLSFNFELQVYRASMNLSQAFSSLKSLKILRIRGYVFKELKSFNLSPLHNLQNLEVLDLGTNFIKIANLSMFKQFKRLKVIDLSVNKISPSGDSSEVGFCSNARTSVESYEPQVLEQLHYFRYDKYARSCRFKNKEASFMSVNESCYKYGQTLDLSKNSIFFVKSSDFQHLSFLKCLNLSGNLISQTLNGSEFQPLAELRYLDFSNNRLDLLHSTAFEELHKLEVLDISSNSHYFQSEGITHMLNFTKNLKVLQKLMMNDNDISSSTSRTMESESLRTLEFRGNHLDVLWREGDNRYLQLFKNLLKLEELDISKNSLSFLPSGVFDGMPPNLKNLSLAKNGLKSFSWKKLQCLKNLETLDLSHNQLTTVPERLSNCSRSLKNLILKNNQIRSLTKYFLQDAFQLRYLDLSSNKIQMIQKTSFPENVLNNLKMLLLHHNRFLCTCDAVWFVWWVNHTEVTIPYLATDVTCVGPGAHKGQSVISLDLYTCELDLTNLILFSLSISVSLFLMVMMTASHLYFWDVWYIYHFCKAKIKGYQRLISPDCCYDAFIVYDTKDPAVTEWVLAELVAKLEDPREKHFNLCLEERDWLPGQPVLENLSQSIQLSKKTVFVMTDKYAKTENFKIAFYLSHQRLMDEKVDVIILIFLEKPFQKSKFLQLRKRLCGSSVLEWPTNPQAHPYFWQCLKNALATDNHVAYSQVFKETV
How it was run: (§1)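 30 min RT cpd pre-incubation (0.05 nM–50 μM final dose response) → agonist: gardiquimod 7.5 μM / R848 15.9 μM / ODN2006 5 nM for TLR7/8/9 resp. → 22 h, 37° C → SEAP via detection medium. % inhibition vs agonist+DMSO and reference inhibitor controls.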

human TLR8 = target: T2, human TLR8 (Homo sapiens, UniProt Q9NR97); experiment: TLR8 inhibition reporter assay (HEK-Blue cells, SEAP reporter, R848 stimulation); settings: HEK-Blue cells overexpressing human TLR8, SEAP reporter, R848 15.9 μM
T2 construct: host or cells: HEK-Blue cells
T2 sequence (Q9NR97 27-1041): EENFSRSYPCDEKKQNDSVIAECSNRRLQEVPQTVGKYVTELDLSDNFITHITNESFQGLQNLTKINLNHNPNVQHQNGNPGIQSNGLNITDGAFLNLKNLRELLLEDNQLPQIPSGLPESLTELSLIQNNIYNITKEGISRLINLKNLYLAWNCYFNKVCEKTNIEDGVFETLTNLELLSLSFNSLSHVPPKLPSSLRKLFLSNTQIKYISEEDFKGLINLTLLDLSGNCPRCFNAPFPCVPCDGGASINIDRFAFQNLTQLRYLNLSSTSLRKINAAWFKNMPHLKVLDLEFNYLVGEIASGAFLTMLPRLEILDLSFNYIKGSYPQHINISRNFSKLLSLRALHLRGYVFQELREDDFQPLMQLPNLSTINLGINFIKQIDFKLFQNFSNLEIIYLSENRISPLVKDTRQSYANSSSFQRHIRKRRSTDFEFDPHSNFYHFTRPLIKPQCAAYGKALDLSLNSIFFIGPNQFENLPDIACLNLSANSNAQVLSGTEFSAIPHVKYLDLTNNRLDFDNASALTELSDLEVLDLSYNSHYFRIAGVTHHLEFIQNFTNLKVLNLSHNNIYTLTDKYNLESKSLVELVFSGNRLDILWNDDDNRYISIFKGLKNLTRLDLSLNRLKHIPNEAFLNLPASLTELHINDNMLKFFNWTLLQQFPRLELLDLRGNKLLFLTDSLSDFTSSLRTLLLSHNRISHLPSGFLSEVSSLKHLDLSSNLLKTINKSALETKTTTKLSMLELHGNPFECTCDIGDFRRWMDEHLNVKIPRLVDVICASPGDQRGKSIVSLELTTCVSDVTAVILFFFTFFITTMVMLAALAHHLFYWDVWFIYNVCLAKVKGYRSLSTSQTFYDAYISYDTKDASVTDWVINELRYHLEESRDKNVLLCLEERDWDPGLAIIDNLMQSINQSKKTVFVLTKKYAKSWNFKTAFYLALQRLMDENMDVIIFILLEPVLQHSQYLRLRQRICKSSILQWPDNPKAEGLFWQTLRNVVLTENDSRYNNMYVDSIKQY
How it was run: as §1

human TLR9 = target: T3, human TLR9 (Homo sapiens, UniProt Q9NR96); experiment: TLR9 inhibition reporter assay (HEK-Blue cells, SEAP reporter, ODN2006 stimulation); settings: HEK-Blue cells overexpressing human TLR9, SEAP reporter, ODN2006 5 nM
T3 construct: host or cells: HEK-Blue cells
T3 sequence (Q9NR96 26-1032): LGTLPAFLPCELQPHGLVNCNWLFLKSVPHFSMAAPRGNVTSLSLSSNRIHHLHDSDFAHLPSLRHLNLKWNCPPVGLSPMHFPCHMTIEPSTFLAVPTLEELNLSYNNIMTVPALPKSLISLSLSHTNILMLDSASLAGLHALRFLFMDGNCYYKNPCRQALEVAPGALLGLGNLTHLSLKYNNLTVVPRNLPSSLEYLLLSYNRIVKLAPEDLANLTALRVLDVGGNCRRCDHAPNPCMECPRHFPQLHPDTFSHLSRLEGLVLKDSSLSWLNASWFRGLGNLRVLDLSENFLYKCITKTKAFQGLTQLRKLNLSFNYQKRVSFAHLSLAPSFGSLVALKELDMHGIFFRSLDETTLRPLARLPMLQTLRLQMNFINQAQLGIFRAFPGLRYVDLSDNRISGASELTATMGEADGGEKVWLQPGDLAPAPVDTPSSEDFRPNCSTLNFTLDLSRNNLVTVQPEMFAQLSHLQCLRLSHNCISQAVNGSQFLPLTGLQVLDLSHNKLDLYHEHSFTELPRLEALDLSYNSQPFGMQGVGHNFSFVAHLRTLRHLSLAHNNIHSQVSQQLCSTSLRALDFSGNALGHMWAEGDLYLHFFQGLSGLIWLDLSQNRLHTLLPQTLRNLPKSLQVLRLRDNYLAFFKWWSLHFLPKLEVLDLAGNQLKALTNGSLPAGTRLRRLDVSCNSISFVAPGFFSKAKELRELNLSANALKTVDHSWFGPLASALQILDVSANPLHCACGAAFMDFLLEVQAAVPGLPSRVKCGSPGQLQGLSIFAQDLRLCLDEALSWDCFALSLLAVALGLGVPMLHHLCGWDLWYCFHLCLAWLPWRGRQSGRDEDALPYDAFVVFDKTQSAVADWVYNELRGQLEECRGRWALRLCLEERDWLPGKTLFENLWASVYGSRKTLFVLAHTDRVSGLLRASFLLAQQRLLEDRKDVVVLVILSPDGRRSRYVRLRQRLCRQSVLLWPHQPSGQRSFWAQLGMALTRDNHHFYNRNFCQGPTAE
How it was run: as §1

Row | SMILES | IC50 (human TLR7) [nM] | IC50 (human TLR8) [nM] | IC50 (human TLR9) [nM]
1 | Cc1cc(-c2[nH]nc(-c3cncc(N)c3)c2C(C)C)cn2ncnc12 [Example 225] | 2.56 | 3.94 | 5490
2 | Cc1cc(-c2[nH]nc(-c3cnc(N)cn3)c2C(C)C)cn2ncnc12 [Example 226] | 0.35 | 0.41 | 6780
3 | Cc1cc(-c2[nH]nc(-c3ccc(N)nc3)c2C(C)C)cn2ncnc12 [Example 227] | 4.43 | 11.4 | 18200
4 | Cc1cc(-c2[nH]nc(-c3cnc(N)nc3)c2C(C)C)cn2ncnc12 [Example 228] | 2.18 | 1.46 | 8860
5 | Cc1cc(-c2[nH]nc(-c3ccc(C(N)=O)cc3)c2C(C)C)cn2ncnc12 [Example 229] | 7.1 | 3.71 | 4960
6 | Cc1cc(-c2[nH]nc(-c3cnc4c(c3)CNCC4)c2C(C)C)cn2ncnc12 [Example 230] | 4.92 | 1.5 | 43500
7 | Cc1cc(-c2[nH]nc(-c3ccc4c(c3)CNCC4)c2C(C)C)cn2ncnc12 [Example 231] | 6.32 | 1.19 | 49500
8 | Cc1cc(-c2[nH]nc(-c3cccc(N)c3)c2C(C)C)cn2ncnc12 [Example 232] | 4.19 | 7.87 | > 50000
9 | Cc1cc(-c2[nH]nc(-c3ccc(N)cc3)c2C(C)C)cn2ncnc12 [Example 233] | 2.3 | 0.59 | > 50000
10 | COc1cc(-c2[nH]nc(-c3ccc4c(c3)CCNC4)c2C(C)C)cn2ncnc12 [Example 234] | 15.1 | 59.8 | > 50000
11 | Cc1cc(-c2[nH]nc(-c3ccc4c(c3)CCN(C)C4)c2C(C)C)cn2ncnc12 [Example 235, 6-(4-isopropyl-5-(8-methyl-[1,2,4]triazolo[1,5-a]pyridin-6-yl)-1H-pyrazol-3-yl)-2-methyl-1,2,3,4-tetrahydroisoquinoline] | 1.05 | 1.01 | 16600
12 | Cc1cc(-c2[nH]nc(-c3cnc(N(C)C)cn3)c2C(C)C)cn2ncnc12 [Example 236] | 1.36 | 18.7 | 25400
13 | Cc1cc(-c2[nH]nc(-c3ccc(N(C)C)nc3)c2C(C)C)cn2ncnc12 [Example 237] | 4.87 | 0.29 | 5490
14 | Cc1cc(-c2[nH]nc(-c3cncc(N(C)C)c3)c2C(C)C)cn2ncnc12 [Example 238] | 5.4 | 5.96 | 5370
15 | Cc1cc(-c2[nH]nc(-c3cncc(NC(C)C)c3)c2C(C)C)cn2ncnc12 [Example 239] | 1.96 | 0.27 | 9920
16 | Cc1cc(-c2[nH]nc(-c3ccc(NC(C)C)nc3)c2C(C)C)cn2ncnc12 [Example 240] | 3.72 | 2.82 | 6230
17 | Cc1cc(-c2[nH]nc(-c3cnc(NC(C)C)cn3)c2C(C)C)cn2ncnc12 [Example 241] | 8.06 | 3.19 | > 50000
18 | Cc1cc(-c2[nH]nc(-c3cccc(NC(C)C)c3)c2C(C)C)cn2ncnc12 [Example 242] | 47.1 | 16.1 | > 50000
19 | Cc1cc(-c2[nH]nc(-c3ccc(N(C)C)cc3)c2C(C)C)cn2ncnc12 [Example 243] | 16.4 | 2.1 | 29800
20 | Cc1cc(-c2[nH]nc(-c3ccc(NC(C)C)cc3)c2C(C)C)cn2ncnc12 [Example 244] | 44 | 17.5 | 25300
21 | Cc1cc(-c2[nH]nc(-c3cccc(N(C)C)c3)c2C(C)C)cn2ncnc12 [Example 245] | 2.6 | 0.65 | 22900
22 | Cc1cc(-c2[nH]nc(-c3ccc4c(c3)CCN(C(C)C)C4)c2C(C)C)cn2ncnc12 [Example 246] | 60.8 | 154 | > 50000
23 | Cc1cc(-c2[nH]nc(-c3ccc4c(c3)CCN(C3COC3)C4)c2C(C)C)cn2ncnc12 [Example 247] | 5.87 | 4.42 | 42500
24 | Cc1cc(-c2[nH]nc(-c3ncc4c(n3)CCN(C)C4)c2C(C)C)cn2ncnc12 [Example 248] | 8.33 | 12 | 14000
25 | CCN1CCc2nc(-c3n[nH]c(-c4cc(C)c5ncnn5c4)c3C(C)C)ncc2C1 [Example 249] | 6.34 | 1.19 | 19800
26 | Cc1cc(-c2[nH]nc(-c3ncc4c(n3)CCN(C(C)C)C4)c2C(C)C)cn2ncnc12 [Example 250] | 46.8 | 43.6 | 43300
27 | Cc1cc(-c2[nH]nc(-c3ncc4c(n3)CCN(C3COC3)C4)c2C(C)C)cn2ncnc12 [Example 251] | 10.6 | 2.68 | 45300
28 | Cc1cc(-c2[nH]nc(-c3nc4c(s3)CN(C(C)C)CC4)c2C(C)C)cn2ncnc12 [Example 252] | 67.9 | 35.8 | > 50000
